Measured values from article PMC3961306, “Comparison of the Cancer Gene Targeting and Biochemical Selectivities of All Targeted Kinase Inhibitors Approved for Clinical Use” (PLoS ONE, 2014).

Columns and labels:
Experiment in all cases: Kinase profiling in a biochemical assay panel (mobility shift assays and ELISA), %-inhibition at 1 μM; selectivity entropy
[1] = target: panel of more than 300 wild-type and mutant kinases (313 kinase panel) (Homo sapiens, UniProt Q15759)
[2] = target: panel of more than 300 wild-type and mutant kinases (313 kinase panel) (Homo sapiens, UniProt Q08345)
[3] = target: T1, panel of more than 300 wild-type and mutant kinases (313 kinase panel) (Homo sapiens, UniProt Q05513)
T1 sequence (Q05513 1-592): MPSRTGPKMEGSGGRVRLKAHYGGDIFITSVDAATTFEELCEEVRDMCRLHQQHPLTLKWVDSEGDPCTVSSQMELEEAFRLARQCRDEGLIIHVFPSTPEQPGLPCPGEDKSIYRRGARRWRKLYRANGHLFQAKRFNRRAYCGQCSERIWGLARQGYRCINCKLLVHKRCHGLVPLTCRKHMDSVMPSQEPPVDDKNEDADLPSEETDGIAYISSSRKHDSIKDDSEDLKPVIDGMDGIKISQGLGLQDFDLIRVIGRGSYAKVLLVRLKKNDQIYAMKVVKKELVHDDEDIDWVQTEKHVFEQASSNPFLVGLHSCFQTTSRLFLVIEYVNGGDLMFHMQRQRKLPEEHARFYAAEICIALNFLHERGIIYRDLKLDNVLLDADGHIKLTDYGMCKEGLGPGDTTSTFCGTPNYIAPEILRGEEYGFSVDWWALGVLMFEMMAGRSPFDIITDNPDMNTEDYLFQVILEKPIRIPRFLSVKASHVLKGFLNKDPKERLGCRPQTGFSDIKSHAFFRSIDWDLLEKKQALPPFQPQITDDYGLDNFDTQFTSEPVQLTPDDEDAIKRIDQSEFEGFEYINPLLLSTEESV

[4] = target: panel of more than 300 wild-type and mutant kinases (313 kinase panel) (Homo sapiens, UniProt Q15119)
[5] = target: T2, panel of more than 300 wild-type and mutant kinases (313 kinase panel) (Homo sapiens, UniProt Q9NRA0)
T2 sequence (Q9NRA0 1-654): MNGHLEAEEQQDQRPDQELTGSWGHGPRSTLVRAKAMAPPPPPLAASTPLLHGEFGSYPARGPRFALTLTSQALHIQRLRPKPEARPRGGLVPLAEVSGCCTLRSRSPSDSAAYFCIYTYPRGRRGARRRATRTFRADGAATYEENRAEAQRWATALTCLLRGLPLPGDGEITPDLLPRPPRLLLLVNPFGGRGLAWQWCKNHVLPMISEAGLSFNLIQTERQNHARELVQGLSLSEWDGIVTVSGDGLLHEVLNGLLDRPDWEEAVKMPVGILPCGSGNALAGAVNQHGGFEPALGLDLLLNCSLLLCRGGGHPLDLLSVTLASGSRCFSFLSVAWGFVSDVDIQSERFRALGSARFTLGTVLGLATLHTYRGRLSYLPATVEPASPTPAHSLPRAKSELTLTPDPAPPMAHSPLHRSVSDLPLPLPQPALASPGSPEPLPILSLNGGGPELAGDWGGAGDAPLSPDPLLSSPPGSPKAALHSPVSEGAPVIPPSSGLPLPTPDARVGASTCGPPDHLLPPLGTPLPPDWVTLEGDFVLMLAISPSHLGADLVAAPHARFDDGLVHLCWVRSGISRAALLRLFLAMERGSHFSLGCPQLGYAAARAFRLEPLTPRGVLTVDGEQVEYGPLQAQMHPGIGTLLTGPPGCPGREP

[6] = target: panel of more than 300 wild-type and mutant kinases (313 kinase panel) (Homo sapiens, UniProt P49761)
[7] = target: panel of more than 300 wild-type and mutant kinases (313 kinase panel) (Homo sapiens, UniProt P24941)
[8] = kinase CDK2/CycA2, 1 μM compound
[9] = kinase CDK2/CycE1, 1 μM compound

panel of more than 300 wild-type and mutant kinases (313 kinase panel) (Homo sapiens, UniProt P49761), sequence (P49761 whole entry, change not shown): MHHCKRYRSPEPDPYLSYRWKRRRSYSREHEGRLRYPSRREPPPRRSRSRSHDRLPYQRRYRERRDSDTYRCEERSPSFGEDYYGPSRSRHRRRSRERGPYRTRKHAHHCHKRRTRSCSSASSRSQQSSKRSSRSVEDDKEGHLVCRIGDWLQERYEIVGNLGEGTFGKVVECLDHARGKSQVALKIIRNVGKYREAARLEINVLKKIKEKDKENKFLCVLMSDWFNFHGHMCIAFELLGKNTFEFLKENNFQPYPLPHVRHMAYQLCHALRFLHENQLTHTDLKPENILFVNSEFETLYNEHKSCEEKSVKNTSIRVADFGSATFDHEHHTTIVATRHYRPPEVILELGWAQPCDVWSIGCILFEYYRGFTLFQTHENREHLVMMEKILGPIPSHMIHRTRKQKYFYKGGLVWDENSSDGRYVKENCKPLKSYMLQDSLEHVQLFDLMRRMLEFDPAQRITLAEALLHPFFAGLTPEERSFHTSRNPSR

| Structure (SMILES) | %-inhibition of p38β ([1]; kinase p38β, 1 μM) [%] | %-inhibition of DDR1 ([2]; kinase DDR1, compound at 1 μM) [%] | %-inhibition of PKCζ ([3]; kinase PKCζ, 1 μM) [%] | %-inhibition of PDHK2 ([4]; kinase PDHK2, 1 μM) [%] | %-inhibition of SPHK2 ([5]; kinase SPHK2, 1 μM) [%] | %-inhibition of CLK3 ([6]; kinase CLK3, compound at 1 μM) [%] | %-inhibition, CDK2/CycA2 [7, 8] [%] | %-inhibition, CDK2/CycE1 [7, 9] [%] | %-inhibition of p38β ([1]; 1 µM) [%] | %-inhibition of CLK3 ([6]; 1 µM) [%] | %-inhibition, CDK2/CycE1 ([7]; 1 µM) [%] | %-inhibition of DDR1 ([2]; 1 µM) [%] | %-inhibition of PKCζ ([3]; 1 µM) [%] | %-inhibition of PDHK2 ([4]; 1 µM) [%] | %-inhibition of SPHK2 ([5]; 1 µM) [%] | %-inhibition, CDK2/CycA2 ([7]; 1 µM) [%] |
| --- | --- | --- | --- | --- | --- | --- | --- | --- | --- | --- | --- | --- | --- | --- | --- | --- |
| CO[C@H]1C[C@@H]2CC[C@@H](C)[C@@](O)(O2)C(=O)C(=O)N2CCCC[C@H]2C(=O)O[C@H]([C@H](C)C[C@@H]2CC[C@@H](OC(=O)C(C)(CO)CO)[C@H](OC)C2)CC(=O)[C@H](C)/C=C(\C)[C@@H](O)[C@@H](OC)C(=O)[C@H](C)C[C@H](C)/C=C/C=C/C=C/1C [temsirolimus] | -2 | -5.36 | 5 | -2.2 | 2.77 | -3 | -8 | -1.35 | – | – | – | – | – | – | – | – |
| CNC(=O)c1cc(Oc2ccc(NC(=O)Nc3ccc(Cl)c(C(F)(F)F)c3)c(F)c2)ccn1 [regorafenib] | 98 | 101 | 5 | 7 | -3.2 | -15 | -12 | -2.7 | – | – | – | – | – | – | – | – |
| CO[C@H]1C[C@@H]2CC[C@@H](C)[C@@](O)(O2)C(=O)C(=O)N2CCCC[C@H]2C(=O)O[C@H]([C@H](C)C[C@@H]2CC[C@@H](OCCO)[C@H](OC)C2)CC(=O)[C@H](C)/C=C(\C)[C@@H](O)[C@@H](OC)C(=O)[C@H](C)C[C@H](C)/C=C/C=C/C=C/1C [everolimus] | -4.49 | -2.76 | 5 | 4 | 1.25 | -9 | -11 | -14 | – | – | – | – | – | – | – | – |
| COc1cc2nccc(Oc3ccc(NC(=O)C4(C(=O)Nc5ccc(F)cc5)CC4)cc3)c2cc1OC [cabozantinib] | 33 | 102 | 4 | -1.54 | 2 | -1.24 | -9 | 5 | – | – | – | – | – | – | – | – |
| Cc1nc(Nc2ncc(C(=O)Nc3c(C)cccc3Cl)s2)cc(N2CCN(CCO)CC2)n1 [dasatinib] | – | – | – | – | – | 0.469 | 5 | 12 | – | – | – | – | – | – | – | – |
| COc1cc2c(Nc3ccc(Br)cc3F)ncnc2cc1OCC1CCN(C)CC1 [vandetanib] | 7 | 100 | 1.3 | 0.22 | 5.7 | -15 | -8 | -21 | – | – | – | – | – | – | – | – |
| CC(C)(C)c1nc(-c2cccc(NS(=O)(=O)c3c(F)cccc3F)c2F)c(-c2ccnc(N)n2)s1 [dabrafenib] | 5.3 | 96 | 5 | 0.108 | -14 | 17 | – | – | – | – | – | – | – | – | – | – |
| Cc1ccc(Nc2nccc(N(C)c3ccc4c(C)n(C)nc4c3)n2)cc1S(N)(=O)=O [pazopanib] | 18 | 97 | -0.674 | -4.23 | 4 | 0.791 | -5 | -0.507 | – | – | – | – | – | – | – | – |
| N#CC[C@H](C1CCCC1)n1cc(-c2ncnc3[nH]ccc23)cn1 [ruxolitinib] | – | – | -9 | -4 | 6 | – | 2.48 | -12 | -0.778 | -2.14 | – | – | – | – | – | – |
| C[C@@H](Oc1cc(-c2cnn(C3CCNCC3)c2)cnc1N)c1c(Cl)ccc(F)c1Cl [crizotinib] | – | 97 | 9 | -3.51 | 8 | -5 | – | -14 | – | – | – | – | – | – | – | – |
| CN(C)C/C=C/C(=O)Nc1cc2c(Nc3ccc(F)c(Cl)c3)ncnc2cc1O[C@H]1CCOC1 [afatinib] | – | – | – | -2.76 | -10 | – | – | – | – | – | – | – | – | – | – | – |
| CCCS(=O)(=O)Nc1ccc(F)c(C(=O)c2c[nH]c3ncc(-c4ccc(Cl)cc4)cc23)c1F [vemurafenib] | 24 | 52 | 13 | 3.73 | 8 | -14 | -3 | -5 | – | – | – | – | – | – | – | – |
| O=S(=O)(c1cccc2cnccc12)N1CCCNCC1 [fasudil] | -2.17 | -1.19 | 7.57 | -0.108 | -21 | -0.753 | 22 | 13 | – | – | – | – | – | – | – | – |
| CS(=O)(=O)CCNCc1ccc(-c2ccc3ncnc(Nc4ccc(OCc5cccc(F)c5)c(Cl)c4)c3c2)o1 [lapatinib] | -10 | 33 | 0 | -5 | -4 | 0.469 | – | – | – | – | -2.57 | – | – | – | – | – |
| C#Cc1cccc(Nc2ncnc3cc(OCCOC)c(OCCOC)cc23)c1 [erlotinib] | – | – | – | – | – | – | – | – | -4 | -0.469 | -2.43 | 93 | 7 | -4 | -2.22 | 10 |
| Cc1cn(-c2cc(NC(=O)c3ccc(C)c(Nc4nccc(-c5cccnc5)n4)c3)cc(C(F)(F)F)c2)cn1 [nilotinib] | 96 | 103 | 5.32 | 0.549 | 6 | -10 | -0.282 | 20 | – | – | – | – | – | – | – | – |
| COc1cc(Nc2c(C#N)cnc3cc(OCCCN4CCN(C)CC4)c(OC)cc23)c(Cl)cc1Cl [bosutinib] | -0.299 | 97 | 14 | -3.29 | 4.4 | – | – | – | – | – | – | – | – | – | – | – |
| CC(=O)Nc1cccc(-n2c(=O)n(C3CC3)c(=O)c3c(Nc4ccc(I)cc4F)n(C)c(=O)c(C)c32)c1 [trametinib] | 2.31 | -2 | 4.31 | -0.542 | -14 | -0.0684 | 24 | 2.59 | – | – | – | – | – | – | – | – |
| Cc1ccc(C(=O)Nc2ccc(CN3CCN(C)CC3)c(C(F)(F)F)c2)cc1C#Cc1cnc2cccnn12 [ponatinib] | 101 | – | 14 | -0.22 | 11 | – | -9 | 9 | – | – | – | – | – | – | – | – |
